The record followed here is ChEMBL document CHEMBL4219118, “Cathepsin B inhibitors: Further exploration of the nitroxoline core” (Bioorg Med Chem Lett, 2018).

Test [1] addresses T1, Cathepsin B (Homo sapiens, UniProt P07858). Briefly: Competitive inhibition of recombinant human cathepsin B exopeptidase activity assessed as inhibitory constant for enzyme-inhibitor complex using Abz-Gly-Ile-Val-Arg-Ala-Lys(Dnp)-OH as substrate in presence of pH 5 acetate buffer by fluorescence assay.
Test [2] deals with T1, Cathepsin B. Briefly: Non-competitive inhibition of recombinant human cathepsin B endopeptidase activity assessed as inhibitory constant for enzyme-inhibitor complex using Z-Arg-Arg-AMC as substrate in presence of pH 6 phosphate buffer by fluorescence assay.
Test [3] concerns the target T1, Cathepsin B. Description: Non-competitive inhibition of recombinant human cathepsin B endopeptidase activity assessed as inhibitory constant for enzyme-substrate-inhibitor complex using Z-Arg-Arg-AMC as substrate in presence of pH 6 phosphate buffer by fluorescence assay.

Take `N#CC1(NC(=O)c2cc([N+](=O)[O-])ccc2O)CC1`: the inhibition constant (Ki) (usually the equilibrium dissociation constant of an inhibitor or competing ligand from its target) on Cathepsin B [1] worked out at 247 µM; at Cathepsin B [2] it was 247 µM; on Cathepsin B [3] it was 128 µM.
